Laboratory results as given in patent US20090312243A1, “TREATMENT OF INFLAMMATORY BOWEL DISEASE (IBD) WITH ANTI-ANGIOGENIC COMPOUNDS” (priority 2005, published 2009).
Entries after “also recorded” stand apart in the source; their conditions may differ.

Assays:
[1] = test system: C57BL/10 IL-10-deficient mice; assay: IL-10-deficient mouse colitis model, disease activity index (DAI); assay type: in vivo; conditions: for effect on established colitis (disease activity index): n=12 per group
Procedure: The DAI was calculated by scoring 1 point for the appearance of each of the following: ruffled fur, occult fecal blood as determined on a Hemoccult Sensa® card (Smith Kline Diagnostics, San Jose, Calif.), rectal prolapse <1 mm, and soft stool. The mice were scored an additional point for diarrhea or severe rectal prolapse >1 mm. The mean with standard error bars of the DAI are plotted for pretreatment and then at the end of each week of treatment (n=12 per group).
The preferred, and widely used, model for testing is the IL-10-deficient (KO) mouse (on a C57BL/10 strain background). As described in the Examples, colonies of C57BL/10 IL-10 KO mice are bred and used. These mice consistently develop colitis at 10-12 weeks of age when transported from the ultra-barrier facility to conventional housing. These mice are used to test the effect of a candidate anti-angiogenic agent on pathogenesis and treatment of established disease.
Colonies of C57BL/10 IL-10-deficient mice were routinely bred at the Case Western Reserve University Animal Research Center for studies of early and late colitis. These mice consistently develop colitis at 10-12 weeks of age when transported from the ultra-barrier facility to conventional housing. These mice were used to test the effect of ATN 161 (Ac-PHSCN—NH2) on both the development and treatment of established disease.
ATN-161 had no effect on the development of colitis in this model when treatment was initiated at the time that the mice were moved to conventional housing. […] A scrambled peptide version of ATN-161 (ATN-163; Ac-HSPNC—NH2) was used as a control and had no effect on established colitis in this model. ATN-163 and vehicle controls were indistinguishable in these studies (data not shown).

[2] = test system: C57BL/10 IL-10-deficient mice; assay: Histologic grading for colitis of colon at Week 6; assay type: in vivo, mouse; conditions: end of Week 6; ATN-161 versus ATN-163 treated group
Procedure: FIG. 2 is a graph summarizing the histologic grading for colitis at Week 6. Grading of intestinal inflammation was determined in a blinded fashion by three readers: no inflammation (0); modest numbers of infiltrating cells in the lamina propria (1); infiltration of mononuclear cells leading to separation of crypts and mild mucosal hyperplasia (2); massive infiltration with inflammatory cells accompanied by disrupted mucosal architecture, loss of goblet cells, and marked mucosal hyperplasia (3); all of the above plus crypt abscesses or ulceration (4).
Animals were euthanized at the end of Week 6 and the colon removed for histologic analysis.

IL-6 [3] = assay: IL-6 in supernatants of cultured colon fragments from treated mice (ELISA); assay type: in vivo, mouse; conditions: 48 hours culture; versus ATN-163 treated controls
Procedure: (§1) FIGS. 3A and 3B are graphs showing that colon fragments from ATN-161 treated mice expressed lower levels of IL-12 and IL-6. Fragments of colon from mice treated with ATN-161 or ATN-163 were cultured in RPMI media +2% fetal bovine serum and 2.5% PSF (antibiotic-antimycotic). After 48 hours, supernatants were harvested and kept frozen at −80 C. FIG. 3A: IL-12(p40) was analyzed using an ELISA in which plates had been coated with the monoclonal antibody C15.6. FIG. 3B: IL-6 was analyzed using a commercially available ELISA kit specific for mouse IL-6 (R&D Systems, Minneapolis, Minn.).
(§2) Biopsies were also cultured in vitro and the supernatants analyzed for IL-6 and IL-12 expression as previously described (Spencer D M et al., 2002, Gastroenterology 122:94-105). IL-6 and IL-12 are inflammatory cytokines that have been correlated with the pathogenesis of colitis (Mahida Y R, 2000, Inflamm Bowel Dis 6:21-33).

IL-12(p40) = assay: IL-12 in supernatants of cultured colon fragments from treated mice (ELISA); assay type: in vivo, mouse; conditions: 48 hours culture; versus ATN-163 treated controls
Procedure: as §1, §2

IL-6 [4] = assay: IL-6 production in vitro by LPMC extracts and splenocytes; assay type: cell-based; conditions: lamina propria mononuclear cell (LPMC) extracts and splenocytes
Procedure: (§3) The effect of ATN-161 on IL-6 and IL-12 expression was also evaluated in vitro using lamina propria mononuclear cell (LPMC) extracts and splenocytes.

IL-12 = IL-12 production in vitro by LPMC extracts and splenocytes; assay type: cell-based; conditions: lamina propria mononuclear cell (LPMC) extracts and splenocytes
Procedure: as §3

[5] = test system: C57BL/10 IL-10-deficient mice; assay: Microvessel density in colon sections by anti-CD31 immunostaining; assay type: in vivo, mouse; conditions: zinc fixed colon sections
Procedure: FIG. 4 is a graph showing an analysis of microvessel density using anti-CD31 immunostaining. Immunostaining was performed using the mouse CD31 specific mAb MEC 13.3 (Becton-Dickinson, San Diego, Calif.). Morphometric analysis was carried out using an international consensus for the quantification of angiogenesis (Vermeulen P B et al., Eur J Cancer 32A:2474-84; Eur J Cancer 38:1564-15). In particular stained colonic sections were scanned at low power (40×) to detect the most vascularized area, after which at least 5 microphotographs at 200× magnification were taken in the mucosa and in the submucosa. The number of vessels/field (mean vascular density) was performed using Image Pro Plus Software (Media Cybernetics, Silver Spring, Md.).
Microvessel density as a measure of angiogenesis was determined in zinc fixed colon sections.

[6] = test system: human colon cancer cells (HT29); conditions: HT29 do not express integrin α5β1; cited from earlier work
cell adhesion = conditions: cited from earlier work
tumor angiogenesis = conditions: cited from earlier work

Substance	effect on established colitis (disease activity index) ([1]; mice with established disease)	treatment time after which the reduction of colitis was observed ([1]; mice with established disease)	effect on the development of colitis ([1]; treatment initiated at the time the mice were moved to conventional housing)	histologic score [2]	IL-6 level in colon fragment organ culture (IL-6 [3])	IL-12 level in colon fragment organ culture (IL-12(p40))	effect on IL-6 production (IL-6 [4])	effect on IL-12 production (IL-12)	reduction of microvessels versus ATN-163 treated controls [5]	in vivo growth of xenografted HT29 cells [6]	effect on cell adhesion (cell adhesion)	effect on efficacy of 5-fluorouracil (tumor angiogenesis; combination with 5-fluorouracil)	effect on tumor angiogenesis (tumor angiogenesis; in vivo)
Ac-HSPNC—NH2 (Ac-HSPNC-NH2) [ATN-163, reference compound]	no effect	–	–	–	–	–	–	–	–	–	–	–	–
Ac-PHSCN—NH2 (Ac-PHSCN-NH2) [ATN-161]	consistently reduced colitis; also recorded: reduces established colitis	approximately four	no effect	significantly lower	significantly lower levels	significantly lower levels	no effect	no effect	approximately 40%	significantly reduced	does not affect cell adhesion	enhance the efficacy	inhibited tumor angiogenesis
